Literature values in US20110189710A1, “TREATMENT OF POMPE DISEASE WITH […] PHARMACOLOGICAL CHAPERONES AND MONITORING TREATMENT USING SURROGATE MARkERS” (AMICUS THERAPEUTICS, INC., priority 2008, published 2011).

Assays:
[1] = biological target: T1, human mutant α-Gal A (R301Q) (Homo sapiens, UniProt P06280, R301Q); conditions: neutral pH; cited from earlier work
T1 sequence (P06280 32-429 R301Q): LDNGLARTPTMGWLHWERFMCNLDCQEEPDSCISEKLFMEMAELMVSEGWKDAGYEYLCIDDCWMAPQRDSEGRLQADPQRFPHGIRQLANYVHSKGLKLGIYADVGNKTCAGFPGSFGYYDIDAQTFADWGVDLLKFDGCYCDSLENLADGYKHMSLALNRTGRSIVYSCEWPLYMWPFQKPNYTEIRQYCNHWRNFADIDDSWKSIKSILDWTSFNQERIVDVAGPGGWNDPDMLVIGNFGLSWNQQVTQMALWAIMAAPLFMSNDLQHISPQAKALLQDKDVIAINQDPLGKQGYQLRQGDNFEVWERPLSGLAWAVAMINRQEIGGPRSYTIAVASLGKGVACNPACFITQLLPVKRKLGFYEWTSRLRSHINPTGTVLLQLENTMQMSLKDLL

mutant (R301Q) α-Gal A = biological target: T2, mutant (R301Q) α-Gal A (Homo sapiens, UniProt P06280, R301Q); conditions: oral administration; transgenic mice overexpressing mutant (R301Q) α-Gal A; cited from earlier work
T2 construct: host or cells: transgenic mice
T2 sequence (P06280 32-429 R301Q): T1 sequence (P06280 32-429 R301Q)

[2] = system: α-Gal A (R301Q or Q279E) in Fabry patient lymphoblasts; conditions: lymphoblasts from Fabry patients with R301Q or Q279E mutations; cited from earlier work

## OC[C@H]1NC[C@H](O)[C@@H](O)[C@H]1O [DGJ, 1-deoxygalactonojirimycin]
[1]
  In vitro stability of mutant enzyme: effectively increased in vitro stability
Mutant (R301Q) α-Gal A
  Enzyme activity in major organs: substantially elevated the enzyme activity
[2]
  Mutant enzyme activity in lymphoblasts: enhanced the mutant enzyme activity
